Reference: publication PMC10223884, “Oligosaccharide Ligands of Galectin-4 and Its Subunits: Multivalency Scores Highly” (Molecules, 2023)
“And” between values parts separate entries of the source, which are not always exact repeats. Identical values can stand only once. One block for each molecule: values may come before it.

Assays:
Gal-4CL = molecular target: T1, Gal-4CL (Homo sapiens, UniProt P56470); assay: competitive ELISA, inhibition of binding of Gal-4CL subunit to immobilized ASF; conditions: for IC50: competitive ELISA, Gal-4CL 25 µM, immobilized ASF
T1 construct: designated as Gal-4NL (aa 1-160), and Gal-4CL (aa 169-323), respectively; made in house; host or cells: E. coli Rosetta (DE3) pLysS
T1 sequence (P56470 169-323): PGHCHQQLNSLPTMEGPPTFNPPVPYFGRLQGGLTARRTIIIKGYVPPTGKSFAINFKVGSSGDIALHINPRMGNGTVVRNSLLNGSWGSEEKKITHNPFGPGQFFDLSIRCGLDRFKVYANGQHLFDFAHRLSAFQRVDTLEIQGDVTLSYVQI
Experimental: (§1) To design the ELISA method, we first examined the direct binding of the whole Gal-4, Gal-4NL, and Gal-4-CL to standard glycoprotein asialofetuin (ASF, MW 48.4 kDa), which carries up to nine LacNAc epitopes. The ASF was immobilized by hydrophobic interaction in microtiter-plate wells, and the binding of increasing concentrations of Gal-4 proteins was quantified by colorimetric immunodetection using horseradish peroxidase conjugated to an anti-His-tag antibody. The apparent dissociation constants (KD) were calculated from the non-linear regression of the binding curves (Figure 3). […] While for the Gal-4 ELISA measurement we used the concentration of Gal-4 of 2.5 μM, for both subunits, it was 25 μM. […] The Gal-4 proteins were incubated with increasing concentrations of the respective inhibitors, and the concentration-dependent inhibition of the binding to the immobilized ASF was quantified using spectrophotometric colorimetric immunodetection (HRP-conjugated anti-His-tag antibody). The respective half-maximal inhibition constants (IC50) were calculated from the non-linear regression of the sigmoidal curves (Figure 3), and they are shown in Table 2 and Table 3.
(§2) Each incubation step was followed by washing the wells with 3 × 250 µL phosphate-buffered saline (PBS) containing 0.05% Tween® 20. In total, 0.1 µM ASF in PBS (50 µL/well) was coated onto microtiter plates (Nunc Immuno Sorb, ThermoFisher Scientific, Waltham, MA, USA) overnight. After blocking the wells with 2 mg/mL bovine serum albumin (BSA) in PBS buffer (250 µL/well, 1 h), serial dilutions of the inhibitors in PBS buffer containing 2 mM EDTA (EPBS) were incubated with Gal-4 (2.5 µM final dimer concentration) or its subunits, Gal-4CL and Gal-4NL (25 µM final monomer concentration) for 2 h (50 µL/well). The residual bound galectin was labeled with an anti-His-antibody conjugated with horseradish peroxidase (HRP) (Santa Cruz Biotechnology, Heidelberg, Germany; 1:999 dilution in PBS). The colorimetric reaction with TMB One substrate solution (Kem-En-Tec, Taastrup, Denmark; 50 µL/well) was stopped with 3 M hydrochloric acid (HCl) (50 µL/well) and quantified spectrophotometrically at 450 nm (Sunrise; Tecan Group Ltd., Männedorf, Switzerland). The values of half-maximal inhibitory concentrations (IC50) were calculated by non-linear regression (dose–response inhibition-variable slope) of sigmoidal curves from a minimum of three independent experiments using GraphPad Prism 8.4.3 (GraphPad Software, San Diego, CA, USA).

Gal-4NL [1] = molecular target: T2, Gal-4NL (Homo sapiens, UniProt P56470); assay: competitive ELISA, inhibition of binding of Gal-4NL subunit to immobilized ASF; conditions: for IC50: competitive ELISA, Gal-4NL 25 µM, immobilized ASF
T2 construct: designated as Gal-4NL (aa 1-160), and Gal-4CL (aa 169-323), respectively; made in house; host or cells: E. coli Rosetta (DE3) pLysS
T2 sequence (P56470 1-160): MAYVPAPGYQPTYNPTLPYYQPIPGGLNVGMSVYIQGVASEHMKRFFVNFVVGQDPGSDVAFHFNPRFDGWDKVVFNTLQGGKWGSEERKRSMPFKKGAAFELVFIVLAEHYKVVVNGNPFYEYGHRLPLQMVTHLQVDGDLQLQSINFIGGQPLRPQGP
Experimental: as §1, §2

Gal-4 = molecular target: T3, Gal-4 (Homo sapiens, UniProt P56470); assay: competitive ELISA, inhibition of binding of whole Gal-4 to immobilized ASF; conditions: for IC50: competitive ELISA, Gal-4 2.5 µM, immobilized ASF; for rp, relative potency (IC50 (lactose)/IC50 (ligand)): whole Gal-4
T3 construct: made in house; host or cells: Escherichia coli Rosetta (DE3) pLysS
T3 sequence (P56470 1-323): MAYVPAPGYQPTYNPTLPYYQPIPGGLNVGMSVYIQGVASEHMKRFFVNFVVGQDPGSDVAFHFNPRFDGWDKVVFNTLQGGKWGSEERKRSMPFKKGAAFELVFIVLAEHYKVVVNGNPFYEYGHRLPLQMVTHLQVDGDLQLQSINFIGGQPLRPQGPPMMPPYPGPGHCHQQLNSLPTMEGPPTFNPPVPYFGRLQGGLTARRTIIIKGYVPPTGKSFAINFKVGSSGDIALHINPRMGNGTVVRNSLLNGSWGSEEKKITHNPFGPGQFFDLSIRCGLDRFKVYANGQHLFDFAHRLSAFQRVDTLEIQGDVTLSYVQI
Experimental: as §1, §2

Gal-4NL [2] = molecular target: Gal-4NL; parameters: method as in PMID 33968903; conditions: ITC; cited from earlier work
[3] = dynamic light scattering (DLS) of Gal-4 and its subunits in solution; assay type: physicochemical; conditions: 25 µM, 25 °C
Experimental: Therefore, we decided to obtain more insights into the potential aggregation behavior of the Gal-4 subunits in solution, which, theoretically, might have contributed to the multivalency effect, even with the monovalent Gal-4 subunits. The hydrodynamic radii of the whole Gal-4 and its subunits in the concentrations used in the ELISA assay (25 µM) were assessed using dynamic light scattering (DLS). This method provided information about the size distribution of the particles in the samples (Table 4). […] Therefore, the larger particles seemed to be more abundant in these distribution diagrams because light scattering is proportional to the sixth power of the scattering-matter diameter. To avoid misinterpretation, we also present the volume-weighed size distributions in Table 4, which highlight the most abundant populations of particles. These values indicate that in the cases of the whole Gal-4 and Gal-4CL, the large aggregates at 1200 nm and 400 nm, respectively, can be neglected (the volume-weighted size distributions accounted for 9 and 7 nm, respectively). The whole Gal-4 formed the most abundant particles, of 11 nm, which was similar to Gal-4CL with 8 nm particles. In the case of Gal-4NL, the solution was more polydisperse, and two significant populations were observed. The first population, of 1.3 nm, probably represented the individual Gal-4NL subunits, whereas the slightly larger population of 16 nm belonged to the aggregated species.
The hydrodynamic diameter of the Gal-4 and its subunits (25 μM) was measured by dynamic light scattering (DLS) using Zetasizer Nano S90 (Malvern Instruments Ltd., Malvern, UK) at 25 °C. The light scattered at θ = 173° from the incident light was fitted to an autocorrelation function using the method of cumulants (Malvern Instruments Ltd., Malvern, UK). The hydrodynamic diameters were determined from five independent repetitions (10–50 runs) in Malvern disposable plastic cuvettes. The particle-size distribution was determined by analyzing the multimodal peak by intensity and volume.

[4] = molecular target: T4, asialofetuin (standard glycoprotein, MW 48.4 kDa) (UniProt P12763 19-359, glycoprotein without sialic acid; carries up to nine LacNAc epitopes); assay: ELISA; direct ELISA; ASF (0.1 µM in PBS) coated on microtiter plate overnight, blocked with BSA; increasing concentrations of Gal-4 or its subunits, 2 h; detected with HRP-conjugated anti-His antibody; apparent KD from non-linear regression; conditions: both partners purified
T4 construct: Asialofetuin (desialylated fetuin), MW 48.4 kDa; Commercial asialofetuin is commonly from fetal calf serum; also called ASF
T4 sequence (looked up): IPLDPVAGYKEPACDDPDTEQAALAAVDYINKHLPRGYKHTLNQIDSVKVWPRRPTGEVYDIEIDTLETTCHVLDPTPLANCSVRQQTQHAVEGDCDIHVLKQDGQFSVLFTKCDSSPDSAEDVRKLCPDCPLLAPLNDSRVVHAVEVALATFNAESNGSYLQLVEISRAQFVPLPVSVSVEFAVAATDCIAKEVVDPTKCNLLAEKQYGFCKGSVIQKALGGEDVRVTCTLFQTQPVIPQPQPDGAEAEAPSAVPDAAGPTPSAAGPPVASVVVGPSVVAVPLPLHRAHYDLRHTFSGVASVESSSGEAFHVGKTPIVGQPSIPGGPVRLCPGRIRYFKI

Molecule: C[C@@H]1O[C@@H](O[C@H]2[C@H](O[C@H]3[C@H](O)[C@@H](O)C(O)O[C@@H]3CO)O[C@H](CO)[C@H](O)[C@@H]2O)[C@@H](O)[C@H](O)[C@@H]1O (stereo partly shown) [2′-fucosyllactose (2), 2′-fucosyllactose]
- rp Gal-4CL, relative potency (IC50 (lactose)/IC50 (ligand)) (Gal-4CL): 7.8
- IC50 (Gal-4CL): 1100 ± 100 µM
- rp Gal-4NL, relative potency (IC50 (lactose)/IC50 (ligand)) (Gal-4NL [1]): 4.8
- IC50 (Gal-4NL [1]): 600 ± 60 µM
- IC50 (Gal-4): 1500 ± 200 µM
- rp, relative potency (IC50 (lactose)/IC50 (ligand)) (Gal-4): 1.7

Molecule: CC(=O)N[C@H]1C(O)O[C@H](CO)[C@H](O)[C@@H]1O[C@@H]1O[C@H](CO)[C@H](O)[C@H](O)[C@H]1O (stereo partly drawn) [TF antigen motif (9), β-D-galactopyranosyl-(1→3)-2-acetamido-2-deoxy-D-galactopyranose]
- rp Gal-4CL, relative potency (IC50 (lactose)/IC50 (ligand)) (Gal-4CL): 1.5
- IC50 (Gal-4CL): 5800 ± 500 µM
- rp Gal-4NL, relative potency (IC50 (lactose)/IC50 (ligand)) (Gal-4NL [1]): 0.8
- IC50 (Gal-4NL [1]): 3500 ± 200 µM
- IC50 (Gal-4): 1180 ± 50 µM
- rp, relative potency (IC50 (lactose)/IC50 (ligand)) (Gal-4): 2.1

B1: Gal-4NL: N-terminal subunit of Gal-4 (aa 1-160) with 10-amino-acid linker, His-tagged (protein)
chain: T2 sequence (P56470 1-160)
modifications: left off: His6, N-terminal, kept
notes: N-terminal subunit of Gal-4 (aa 1-160) with 10-amino-acid linker, His-tagged
- Intensity-Weighed Size Distribution Area (first population) [3]: 13%
- Intensity-Weighed Size Distribution Area (second population) [3]: 50%
- Intensity-Weighed Size Distribution Size (first population) [3]: 1.3 nm and 1.3 ± 0.3 nm
- Intensity-Weighed Size Distribution Size (second population) [3]: 16 nm and 16 ± 7 nm
- PDI, polydispersity index [3]: 0.4
- Volume-Weighted Size Distribution Area [3]: 100%
- Volume-Weighted Size Distribution Size [3]: 3 ± 1 nm

B2: Galectin-4 (whole, His6-tagged construct of human Gal-4) (natural protein, UniProt P56470 1-323, looked up)
chain: T3 sequence (P56470 1-323)
notes: Galectin-4, human, whole protein (two CRDs joined by the linker peptide); also called whole Gal-4; total Gal-4; not shown: His6, N-terminal, kept
- Kd [4]: 3.3 ± 1.1 µM

Further lines, with some results ahead:

- rp Gal-4CL, relative potency (IC50 (lactose)/IC50 (ligand)) (Gal-4CL): 28
- IC50 (Gal-4CL): 300 ± 30 µM
- rp Gal-4NL, relative potency (IC50 (lactose)/IC50 (ligand)) (Gal-4NL [1]): 11
- IC50 (Gal-4NL [1]): 260 ± 10 µM
- IC50 (Gal-4): 80 ± 30 µM
- rp, relative potency (IC50 (lactose)/IC50 (ligand)) (Gal-4): 31
Molecule: C[C@@H]1O[C@@H](O[C@H]2[C@H](O[C@H]3[C@H](O)[C@@H](O)C(O)O[C@@H]3CO)O[C@H](CO)[C@H](O)[C@@H]2O[C@H]2O[C@H](CO)[C@H](O)[C@H](O)[C@H]2O)[C@@H](O)[C@H](O)[C@@H]1O (stereo partly shown) [blood-group antigen B (6), blood-group antigen B type 6]
- Kd (Gal-4NL [2]): 51 µM

- rp Gal-4CL, relative potency (IC50 (lactose)/IC50 (ligand)) (Gal-4CL): 10
- IC50 (Gal-4CL): 800 ± 300 µM
- rp Gal-4NL, relative potency (IC50 (lactose)/IC50 (ligand)) (Gal-4NL [1]): 7.3
- IC50 (Gal-4NL [1]): 400 ± 100 µM
- IC50 (Gal-4): 600 ± 100 µM
- rp, relative potency (IC50 (lactose)/IC50 (ligand)) (Gal-4): 4.1
Molecule: CC(=O)N[C@H]1[C@H](O[C@H]2[C@@H](O)[C@@H](CO)O[C@@H](O[C@H]3[C@H](O)[C@@H](O)C(O)O[C@@H]3CO)[C@@H]2O)O[C@H](CO)[C@@H](O[C@@H]2O[C@H](CO)[C@H](O)[C@H](O)[C@H]2O)[C@@H]1O (stereo partly shown) [lacto-N-neotetraose (4), lacto-N-neotetraose]

- rp Gal-4CL, relative potency (IC50 (lactose)/IC50 (ligand)) (Gal-4CL): 18.3
- IC50 (Gal-4CL): 470 ± 900 µM
- rp Gal-4NL, relative potency (IC50 (lactose)/IC50 (ligand)) (Gal-4NL [1]): 14
- IC50 (Gal-4NL [1]): 210 ± 30 µM
- IC50 (Gal-4): 430 ± 70 µM
- rp, relative potency (IC50 (lactose)/IC50 (ligand)) (Gal-4): 5.9
Molecule: CC(=O)N[C@H]1[C@H](O[C@H]2[C@@H](O)[C@@H](CO)O[C@@H](O[C@H]3[C@H](O)[C@@H](O)C(O)O[C@@H]3CO)[C@@H]2O)O[C@H](CO)[C@@H](O)[C@@H]1O[C@@H]1O[C@H](CO)[C@H](O)[C@H](O)[C@H]1O (stereo partly shown) [lacto-N-tetraose (3), lacto-N-tetraose]

- rp Gal-4CL, relative potency (IC50 (lactose)/IC50 (ligand)) (Gal-4CL): 1.0
- IC50 (Gal-4CL): 8600 ± 1100 µM
- rp Gal-4NL, relative potency (IC50 (lactose)/IC50 (ligand)) (Gal-4NL [1]): 1.0
- IC50 (Gal-4NL [1]): 2900 ± 400 µM
- IC50 (Gal-4): 2500 ± 200 µM
- rp, relative potency (IC50 (lactose)/IC50 (ligand)) (Gal-4): 1.0
Molecule: OC[C@H]1O[C@@H](O[C@H]2[C@H](O)[C@@H](O)[C@H](O)O[C@@H]2CO)[C@H](O)[C@@H](O)[C@H]1O [lactose (1), lactose]

- IC50 (Gal-4): 2500 µM
Molecule: CC(C)(C)OC(=O)NCCNC(=S)N[C@@H]1O[C@H](CO)[C@@H](O[C@@H]2O[C@H](CO)[C@H](O)[C@H](O)[C@H]2O)[C@H](O)[C@H]1O [lactosyl-tBoc 10]
